Two compounds from patent US20210269859A1, “PATHOGEN AND ANT[…]” (priority 2014, published 2021) can be followed below.

Each structure is given as a SMILES string. Where two headings read alike, the source gives them in different places.

Holding throughout (assay type): cell-based
For experiment [1], the system named is kanamycin resistant E. coli K12 MG1655 strain. The following applies: 10 μl. The procedure: (§1) A single E. coli bacterial colony (E. coli K12 MG1655) known to be resistant to kanamycin and a single E. coli bacterial colony (E. coli K12 MG1655) known to be resistant to carbenicillin were separately cultured in LB media for 12-15 hrs until the bacterial cells were in mid-log phase (about 10^8 cells/nil). The culture was then serial diluted to 5×10^2, 5×10^3, 5×10^4, and 5×10^5 cells in LB media containing either 50 μg/ml kanamycin or 100 μg/ml carbenicillin. Resazurin was added to each dilution at a final concentration of 20, 40, or 80 μM in a total reaction volume of 100 μl. Each diluted culture was cultured at 37° C. and fluorescence was measured at wavelength 590 nm at 0, 1, 2, 3, 4, 5, and 6 hrs from the start of culture in the presence of the antibiotic.
The resazurin reduction method was repeated using the kanamycin resistant strain but in a 10 μl total reaction volume and with final cell concentrations of 5×10^1, 5×10^2, 5×10^3, and 5×10^4 cells per reaction. The same final resazurin concentrations (20, 40, or 80 μM), kanamycin concentration, and carbenicillin concentration were used as above. Fluorescence was measured at wavelength 590 nm at 0, 1, 2, 3, 4, 5, 6, and 7 hrs from the start of culture in the presence of the antibiotic.

Experiment [2] shares this test system. The note with it: 100 μl. The procedure:
as §1

Experiment [3] deals with carbenicillin resistant E. coli K12 MG1655 strain. As to the kind of experiment: Resazurin reduction method, 100 μl total reaction volume. The procedure:
as §1

Where [4] appears, read: higher initial cell concentrations (5×10^3, 5×10^4, 5×10^5 cells).
Setting [5] is: lower initial cell concentration (5×10^2 cells).
[6] abbreviates: 50 μg/ml kanamycin or 100 μg/ml carbenicillin, 5×10^2 to 5×10^5 cells, resazurin 20, 40 or 80 μM, 37° C., 0-6 hrs.

Regarding `NC[C@H]1O[C@H](O[C@H]2[C@H](O)[C@@H](O[C@H]3O[C@H](CO)[C@@H](O)[C@H](N)[C@H]3O)[C@H](N)C[C@@H]2N)[C@H](O)[C@@H](O)[C@@H]1O` [kanamycin], the “time after initiating the culture at which resistance to the antibiotic could be detected” value is 1 to 6 h in experiment [1] (higher initial cell concentrations (5×10^2, 5×10^3, 5×10^4 cells)) and 1 to 5 h in experiment [2] (setting [4]). Further, the entries for the “time after initiating the culture at which resistance to the antibiotic began showing” value in experiment [1] (lower initial cell concentration (5×10^1 cells)) and in experiment [2] (setting [5]) were “about 7 hrs” and “about 6 hrs”, respectively.
Regarding `CC1(C)S[C@@H]2[C@H](NC(=O)C(C(=O)O)c3ccccc3)C(=O)N2[C@H]1C(=O)O` (stereo partly drawn) [carbenicillin], the “growth of the strain in the presence of the antibiotic (fluorescence at 590 nm)” value was “slow or no growth” in experiment [1] (same kanamycin and carbenicillin concentrations, 5×10^1 to 5×10^4 cells per reaction, resazurin 20, 40 or 80 μM, 0-7 hrs); “slow or no growth” in experiment [2] (setting [6]); “growth” in experiment [3] (setting [6]). For the same compound, in experiment [3] (setting [4]), the “time after initiating the culture at which resistance to the antibiotic could be detected” value was 1 to 5 h. The “time after initiating the culture at which resistance to the antibiotic began showing” value in experiment [3] (setting [5]) was “about 6 hrs”.
